System: K86415-001-R-J1-PDC complex spheroids, viability
Test: Anticancer human tumor K86415-001-R-J1-PDC patient-derived lung adenocarcinoma cell line growth inhibition [RAS]
Settings: for IC50: curve of first compound; for viability, T/C: stronger effect = lower value
Summary of the method: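 Agents were tested in combination matrices in half-log decrements from a top concentration at or near clinical Cmax (10 microM if undetermined). Targets were multi-cell spheroids of tumour lines plus HUVEC and MSC stromal cells.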

[1] = second compound 0.00316 µM, first compound 0.0316 µM
[2] = second compound 0.00316 µM, first compound 0.1 µM
[3] = second compound 0.01 µM, first compound 0.0316 µM
[4] = second compound 0.01 µM, first compound 0.1 µM
[5] = second compound 0.0316 µM, first compound 0.0316 µM
[6] = second compound 0.0316 µM, first compound 0.1 µM
[7] = second compound 0.1 µM, first compound 0.0316 µM
[8] = second compound 0.1 µM, first compound 0.1 µM
[9] = second compound 0.316 µM, first compound 0.0316 µM
[10] = second compound 0.316 µM, first compound 0.1 µM
[11] = second compound 1 µM, first compound 0.0316 µM
[12] = second compound 1 µM, first compound 0.1 µM
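Note: spheroids exposed to agents for seven days before readout.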

CC(C)NCC(C(=O)N1CCN(c2ncnc3c2C(C)CC3O)CC1)c1ccc(Cl)cc1 (centres undefined) + C=CC(=O)N1CCN(c2nc(OCC3CCCN3C)nc3c(F)c(-c4nc(N)cc(C)c4C(F)(F)F)c(Cl)cc23)C(C)C1
IC50 (second compound 0.00316 µM): < 0.0316 µM | IC50 (second compound 0.01 µM): < 0.0316 µM | IC50 (second compound 0.0316 µM): < 0.0316 µM | IC50 (second compound 0.1 µM): < 0.0316 µM | IC50 (second compound 0.316 µM): < 0.0316 µM | IC50 (second compound 1 µM): < 0.0316 µM | viability, T/C [1]: 15.9% | viability, T/C [2]: 17.9% | viability, T/C (second compound 0.00316 µM, first compound 0.316 µM): 13.7% | viability, T/C (second compound 0.00316 µM, first compound 1 µM): 11.4% | viability, T/C (second compound 0.00316 µM, first compound 3.16 µM): 22.4% | viability, T/C (second compound 0.00316 µM, first compound 10 µM): 18.6% | viability, T/C [3]: 13.2% | viability, T/C [4]: 14.1% | viability, T/C (second compound 0.01 µM, first compound 0.316 µM): 8.15% | viability, T/C (second compound 0.01 µM, first compound 1 µM): 7.26% | viability, T/C (second compound 0.01 µM, first compound 3.16 µM): 9.79% | viability, T/C (second compound 0.01 µM, first compound 10 µM): 5.61% | viability, T/C [5]: 11.2% | viability, T/C [6]: 12.1% | viability, T/C (second compound 0.0316 µM, first compound 0.316 µM): 6.32% | viability, T/C (second compound 0.0316 µM, first compound 1 µM): 6.17% | viability, T/C (second compound 0.0316 µM, first compound 3.16 µM): 6.03% | viability, T/C (second compound 0.0316 µM, first compound 10 µM): 3.62% | viability, T/C [7]: 17.1% | viability, T/C [8]: 9.65% | viability, T/C (second compound 0.1 µM, first compound 0.316 µM): 7.67% | viability, T/C (second compound 0.1 µM, first compound 1 µM): 4.58% | viability, T/C (second compound 0.1 µM, first compound 3.16 µM): 6.35% | viability, T/C (second compound 0.1 µM, first compound 10 µM): 2.96% | viability, T/C [9]: 12.1% | viability, T/C [10]: 8.49% | viability, T/C (second compound 0.316 µM, first compound 0.316 µM): 6.58% | viability, T/C (second compound 0.316 µM, first compound 1 µM): 5.42% | viability, T/C (second compound 0.316 µM, first compound 3.16 µM): 7.11% | viability, T/C (second compound 0.316 µM, first compound 10 µM): 4.04% | viability, T/C [11]: 9.4% | viability, T/C [12]: 10.8% | viability, T/C (second compound 1 µM, first compound 0.316 µM): 7.39% | viability, T/C (second compound 1 µM, first compound 1 µM): 6.41% | viability, T/C (second compound 1 µM, first compound 3.16 µM): 5.23% | viability, T/C (second compound 1 µM, first compound 10 µM): 3.49%

CC(C)n1nc(-c2ccc3oc(N)nc3c2)c2c(N)ncnc21 + C=CC(=O)N1CCN(c2nc(OCC3CCCN3C)nc3c(F)c(-c4nc(N)cc(C)c4C(F)(F)F)c(Cl)cc23)C(C)C1
IC50 (second compound 0.00316 µM): < 0.000316 µM | IC50 (second compound 0.01 µM): < 0.000316 µM | IC50 (second compound 0.0316 µM): < 0.000316 µM | IC50 (second compound 0.1 µM): < 0.000316 µM | IC50 (second compound 0.316 µM): < 0.000316 µM | IC50 (second compound 1 µM): < 0.000316 µM | viability, T/C (second compound 0.00316 µM, first compound 0.000316 µM): 18.4% | viability, T/C (second compound 0.00316 µM, first compound 0.001 µM): 17.5% | viability, T/C (second compound 0.00316 µM, first compound 0.00316 µM): 16.8% | viability, T/C (second compound 0.00316 µM, first compound 0.01 µM): 19.4% | viability, T/C [1]: 31.8% | viability, T/C [2]: 12.5% | viability, T/C (second compound 0.01 µM, first compound 0.000316 µM): 11.8% | viability, T/C (second compound 0.01 µM, first compound 0.001 µM): 11.1% | viability, T/C (second compound 0.01 µM, first compound 0.00316 µM): 11.4% | viability, T/C (second compound 0.01 µM, first compound 0.01 µM): 9% | viability, T/C [3]: 18.9% | viability, T/C [4]: 6% | viability, T/C (second compound 0.0316 µM, first compound 0.000316 µM): 10.9% | viability, T/C (second compound 0.0316 µM, first compound 0.001 µM): 9.65% | viability, T/C (second compound 0.0316 µM, first compound 0.00316 µM): 8.36% | viability, T/C (second compound 0.0316 µM, first compound 0.01 µM): 8% | viability, T/C [5]: 8.61% | viability, T/C [6]: 4.33% | viability, T/C (second compound 0.1 µM, first compound 0.000316 µM): 10.5% | viability, T/C (second compound 0.1 µM, first compound 0.001 µM): 7.96% | viability, T/C (second compound 0.1 µM, first compound 0.00316 µM): 7.44% | viability, T/C (second compound 0.1 µM, first compound 0.01 µM): 7.78% | viability, T/C [7]: 5.11% | viability, T/C [8]: 3.67% | viability, T/C (second compound 0.316 µM, first compound 0.000316 µM): 10.1% | viability, T/C (second compound 0.316 µM, first compound 0.001 µM): 8.76% | viability, T/C (second compound 0.316 µM, first compound 0.00316 µM): 9.08% | viability, T/C (second compound 0.316 µM, first compound 0.01 µM): 8.68% | viability, T/C [9]: 6.52% | viability, T/C [10]: 3.86% | viability, T/C (second compound 1 µM, first compound 0.000316 µM): 8.74% | viability, T/C (second compound 1 µM, first compound 0.001 µM): 8.53% | viability, T/C (second compound 1 µM, first compound 0.00316 µM): 8.04% | viability, T/C (second compound 1 µM, first compound 0.01 µM): 8.63% | viability, T/C [11]: 6.85% | viability, T/C [12]: 2.72%

From PubChem BioAssay AID2060893 (Molecular Pharmacology Branch, DTP, NCI, 2025)
